Reference: US11684067B2, “Generation of peroxyformic acid through polyhydric alcohol formate” (priority 2014, dated 2023)
Several values for one entry are separate records, joined by “and”; a condition that tells them apart may be missing. Equal values may be shown once.

Key:
pseudomonas = assay: Suspension test in cooling tower water samples; assay type: cell-based; conditions: 10 minutes
Procedure: The antimicrobial efficacy of peroxyformic acid generated through the perhydrolysis of glycerol formatted were tested against pseudomonas in cooling tower samples at both 25° C. and 37° C., along with the peroxyacetic acid (POAA) controls, and the results are summarized in Table 6 and 7 below.

[1] = test system: Nalidixic acid resistant E. coli O157:H7; assay: Reduction of E. coli on raw beef brisket, dip treatment; assay type: cell-based; conditions: 10 minutes dip, ambient, 220 ppm POAA / 180 ppm PFA / 50 ppm LAS per formula (Table 15)
Procedure: Nalidixic acid resistant E. coli O157:H7 was used to evaluate the efficacy in treatment with performic acid composition on raw beef brisket according to the conditions shown in Table 14.
The generation of PFA from the perhydrolysis of glycerol formates, PFA formulations, POAA formations and controls were evaluated as shown in Table 15.

[2] = test system: Bacillus subitilisATCC 19659; assay: Sporicidal activity of ester PFA versus POAA (Example 21); assay type: cell-based, Bacillus subtilis; conditions: 20°C, dirty
Text: Bacillus pathogens were used to evaluate the micro efficacy of ester PFA generated according to methods of the present invention in comparison to POAA.

[3] = test system: Aspergillus brasiliensis ATCC 16404; assay: Fungicidal/yeasticidal activity of ester PFA versus POAA (Example 22); assay type: cell-based; conditions: 20°C, dirty
Text: (§1) Canidia and Aspergillus pathogens were used to evaluate the micro efficacy of ester PFA generated according to methods of the present invention in comparison to POAA.

[4] = test system: Candida albicans ATCC 10231; assay: as above; assay type: cell-based; conditions: 20°C, dirty
Text: as §1

[5] = test system: Bacillus subitilisATCC 19659; assay: Sporicidal activity of ester PFA versus POAA (Example 23); assay type: cell-based, Bacillus subtilis; conditions: 20°C, dirty
Text: Additional Bacillus pathogens were used to evaluate the micro efficacy of ester PFA generated according to methods of the present invention in comparison to POAA.

[6] = test system: Enterococcus hirae ATCC 10541; assay: Bactericidal activity of ester PFA versus POAA, EN 1276, dirty conditions; assay type: cell-based; conditions: 20°C
Text: (§2) Additional Staphylococcus, Enterococcus and Pseudomonas pathogens were used to evaluate the micro efficacy of ester PFA generated according to methods of the present invention in comparison to POAA.

[7] = test system: Pseudomonas aeruginosa ATCC 15442; assay: as above; assay type: cell-based; conditions: 20°C
Text: as §2

[8] = test system: Staphylococcus aureus ATCC 6538; assay: as above; assay type: cell-based; conditions: 20°C
Text: as §2

[9] = Laundry disinfection efficacy, EPA protocol on 100% cotton carriers (Table 38); assay type: cell-based; conditions: 42 ppm, pH 7.7, 500 ppm hard water, 40° C., 5 minute exposure, vs water control
Procedure: The microbial efficacy of peroxyformic acid was also tested following the EPA protocol on 100% cotton carriers against a water control. The test conditions were pH 7.7, 500 ppm hard water, 40° C. and 5 minute exposure time. In comparison, the performance of peracetic acid was also tested under the same conditions.

[10] = Physical properties (hygroscopicity, water solubility) of formate esters prepared; assay type: physicochemical; conditions: hexaformates: at room temperature
[11] = BP Cooling Water pH 8.74, 5 ppm Ester PFA / 6.13 ppm POAA, 25°C
[12] = BP Cooling Water pH 8.74, 5 ppm Ester PFA / 6.13 ppm POAA, 37°C
[13] = BP Cooling Water pH 8.74, 12.3 ppm POAA, 25°C
[14] = BP Cooling Water pH 8.74, 12.3 ppm POAA, 37°C
[15] = Peninsula Cooling Water pH 8.81, 5 ppm Ester PFA / 6.13 ppm POAA, 25°C
[16] = Peninsula Cooling Water pH 8.81, 5 ppm Ester PFA / 6.13 ppm POAA, 37°C
[17] = Peninsula Cooling Water pH 8.81, 12.3 ppm POAA, 25°C
[18] = Peninsula Cooling Water pH 8.81, 12.3 ppm POAA, 37°C
[19] = 300 ppm PFA pH 6.84 / 368 ppm POAA pH 6.73 (molar equivalent), 5 minutes
[20] = 300 ppm PFA pH 6.84 / 368 ppm POAA pH 6.73 (molar equivalent), 10 minutes
[21] = 400 ppm PFA pH 7.19 / 490 ppm POAA pH 6.78 (molar equivalent), 5 minutes
[22] = 400 ppm PFA pH 7.19 / 490 ppm POAA pH 6.78 (molar equivalent), 10 minutes
[23] = 200 ppm PFA pH 6.15 / 245 ppm POAA pH 6.56, 5 minutes
[24] = 200 ppm PFA pH 6.15 / 245 ppm POAA pH 6.56, 10 minutes
[25] = 200 ppm PFA pH 6.15 / 245 ppm POAA pH 6.56, 15 minutes
[26] = 300 ppm PFA pH 6.21 / 368 ppm POAA pH 6.63, 5 minutes
[27] = 300 ppm PFA pH 6.21 / 368 ppm POAA pH 6.63, 10 minutes
[28] = 300 ppm PFA pH 6.73 / 368 ppm POAA pH 6.88, 5 minutes
[29] = 300 ppm PFA pH 6.73 / 368 ppm POAA pH 6.88, 10 minutes
[30] = 400 ppm PFA pH 6.95 / 490 ppm POAA pH 6.65, 5 minutes
[31] = 400 ppm PFA pH 6.95 / 490 ppm POAA pH 6.65, 10 minutes
[32] = 20 ppm PFA pH 6.61 / 24.8 ppm POAA pH 6.73, 5 minutes
[33] = 30 ppm PFA pH 6.74 / 37.6 ppm POAA pH 6.90, 5 minutes
[34] = 50 ppm PFA pH 6.60 / 62.4 ppm POAA pH 6.98, 5 minutes

CC(=O)OO [POAA, peroxyacetic acid, reference compound]
Avg. Log10 Growth (pseudomonas; [11]): 4.10 Log10
Log10 Reduction (pseudomonas; [11]): 1.57 Log10
Avg. Log10 Growth (pseudomonas; [12]): 2.84 Log10
Log10 Reduction (pseudomonas; [12]): 2.26 Log10
Avg. Log10 Growth (pseudomonas; [13]): 3.26 Log10
Log10 Reduction (pseudomonas; [13]): 2.41 Log10
Avg. Log10 Growth (pseudomonas; [14]): 2.73 Log10
Log10 Reduction (pseudomonas; [14]): 2.37 Log10
Avg. Log10 Growth (pseudomonas; [15]): 3.81 Log10
Log10 Reduction (pseudomonas; [15]): 1.37 Log10
Avg. Log10 Growth (pseudomonas; [16]): 2.76 Log10
Log10 Reduction (pseudomonas; [16]): 2.34 Log10
Avg. Log10 Growth (pseudomonas; [17]): 3.30 Log10
Log10 Reduction (pseudomonas; [17]): 1.88 Log10
Avg. Log10 Growth (pseudomonas; [18]): 3.20 Log10
Log10 Reduction (pseudomonas; [18]): 1.90 Log10
Average Log CFU/cm2 [1]: 2.98 Log CFU/cm2
Log reduction [1]: 1.06 Log
CFU/cm2 ([1]; single samples): 1.20E+03 CFU/cm2 and 9.00E+02 CFU/cm2 and 8.00E+02 CFU/cm2
CFU/ml ([1]; single samples): 6.00E+02 CFU/ml and 4.50E+02 CFU/ml and 4.00E+02 CFU/ml
Log CFU/cm2 ([1]; single samples): 3.08 Log CFU/cm2 and 2.95 Log CFU/cm2 and 2.90 Log CFU/cm2
Average CFU/mL [2, 19]: 7.50E+05 CFU/mL
Log10 Growth [2, 19]: 5.88 Log10
Log10 Reduction [2, 19]: 0.00 Log10
Average CFU/mL [2, 20]: 5.00E+05 CFU/mL
Log10 Growth [2, 20]: 5.70 Log10
Log10 Reduction [2, 20]: 0.00 Log10
Average CFU/mL [2, 21]: 8.50E+05 CFU/mL
Log10 Growth [2, 21]: 5.93 Log10
Log10 Reduction [2, 21]: 0.00 Log10
Average CFU/mL [2, 22]: 4.00E+05 CFU/mL
Log10 Growth [2, 22]: 5.60 Log10
Log10 Reduction [2, 22]: 0.19 Log10
Average CFU/mL [3, 23]: >1.65E+05 CFU/mL
Log10 Growth [3, 23]: >5.22 Log10
Log10 Reduction [3, 23]: <0.53 Log10
Average CFU/mL [3, 24]: >1.65E+05 CFU/mL
Log10 Growth [3, 24]: >5.22 Log10
Log10 Reduction [3, 24]: <0.53 Log10
Average CFU/mL [3, 25]: >1.65E+05 CFU/mL
Log10 Growth [3, 25]: >5.22 Log10
Log10 Reduction [3, 25]: <0.53 Log10
Average CFU/mL [3, 26]: >1.65E+05 CFU/mL
Log10 Growth [3, 26]: >5.22 Log10
Log10 Reduction [3, 26]: <0.53 Log10
Average CFU/mL [3, 27]: >1.65E+05 CFU/mL
Log10 Growth [3, 27]: >5.22 Log10
Log10 Reduction [3, 27]: <0.53 Log10
Average CFU/mL [4, 23]: <140 CFU/mL
Log10 Growth [4, 23]: <2.15 Log10
Log10 Reduction [4, 23]: >4.14 Log10
Average CFU/mL [4, 24]: <140 CFU/mL
Log10 Growth [4, 24]: <2.15 Log10
Log10 Reduction [4, 24]: >4.14 Log10
Average CFU/mL [4, 25]: <140 CFU/mL
Log10 Growth [4, 25]: <2.15 Log10
Log10 Reduction [4, 25]: >4.14 Log10
Average CFU/mL [4, 26]: <140 CFU/mL
Log10 Growth [4, 26]: <2.15 Log10
Log10 Reduction [4, 26]: >4.14 Log10
Average CFU/mL [4, 27]: <140 CFU/mL
Log10 Growth [4, 27]: <2.15 Log10
Log10 Reduction [4, 27]: >4.14 Log10
Average CFU/mL [5, 28]: >3.0E+06 CFU/mL
Log10 Growth [5, 28]: >6.48 Log10
Log10 Reduction [5, 28]: <1.26 Log10
Average CFU/mL [5, 29]: >3.0E+05 CFU/mL
Log10 Growth [5, 29]: >5.48 Log10
Log10 Reduction [5, 29]: <2.26 Log10
Average CFU/mL [5, 30]: >3.0E+06 CFU/mL
Log10 Growth [5, 30]: >6.48 Log10
Log10 Reduction [5, 30]: <1.26 Log10
Average CFU/mL [5, 31]: >3.0E+05 CFU/mL
Log10 Growth [5, 31]: >5.48 Log10
Log10 Reduction [5, 31]: <2.26 Log10
Average CFU/mL [6, 32]: >3.30E + 05 CFU/mL
Log10 Growth [6, 32]: >5.52 Log10
Average CFU/mL [6, 33]: 9.25E + 03 CFU/mL
Log10 Growth [6, 33]: 3.97 Log10
Average CFU/mL [6, 34]: <140 CFU/mL
Log10 Growth [6, 34]: <2.15 Log10
Average CFU/mL [7, 32]: <140 CFU/mL
Log10 Growth [7, 32]: <2.15 Log10
Average CFU/mL [7, 33]: <140 CFU/mL
Log10 Growth [7, 33]: <2.15 Log10
Average CFU/mL [7, 34]: <140 CFU/mL
Log10 Growth [7, 34]: <2.15 Log10
Average CFU/mL [8, 32]: 1.77E + 05 CFU/mL
Log10 Growth [8, 32]: 5.25 Log10
Average CFU/mL [8, 33]: <140 CFU/mL
Log10 Growth [8, 33]: <2.15 Log10
Average CFU/mL [8, 34]: <140 CFU/mL
Log10 Growth [8, 34]: <2.15 Log10
Log reduction ([9]; Klebsiella pneumoniae ATCC 4352): 2.46
Log reduction ([9]; Staphylococcus aureus ATCC 6538): >5.85

O=COC[C@@H](OC=O)[C@@H](OC=O)[C@H](OC=O)[C@@H](COC=O)OC=O [Mannitol Hexaformates]
solubility in water of the isolated solid [10]: marginally soluble in water
